Source: patent US20240425478A1, “CYCLOPENTYLPYRAZOLE CDK2 INHIBITORS” (Genentech, Inc., priority 2021, published 2024)
Where two headings read alike, the source gives them in different places.

How the values were obtained:
[1] = target: T1, Cyclin Dependent Kinase 2/Cyclin E1 (CDK2-cycE1) (Homo sapiens, UniProt P24941); experiment: CDK2-cycE1 TR-FRET (LANCE) enzyme assay; format: biochemical; conditions: for FS CDK1/CDK2 / FS CDK4/CDK2: fold selectivity; for FS CDK1/CDK2: enzymatic CDK1 Ki over CDK2 Ki; for FS CDK4/CDK2: enzymatic CDK4 Ki over CDK2 Ki
T1 construct: purchased ProQinase 0050-0055-1
Description: (§1) Cyclin Dependent Kinase 1/Cyclin A2 (CDK1-cycA2), Cyclin Dependent Kinase 2/Cyclin E1 (CDK2-cycE1), Cyclin Dependent Kinase 4/Cyclin D3 (CDK4-cycD3) and Cyclin Dependent Kinase 6/Cyclin D3 (CDK6-cycD3) enzyme assays were carried out as described below.
(ii) CDK2-cycE1 TR-FRET (LANCE®)
(§2) An Echo acoustic dispenser is used to create dose responses of compound dissolved in DMSO into a 384-well microplate. A 5 μL volume of enzyme mix is added to the well, and pre-incubated with compound for 30 minutes. […] Buffer conditions are 50 mM HEPES, pH 7.5, 10 mM MgCl2, 2 mM TCEP, 0.05% BGG and 0.01% Brij 35. The reaction is quenched with 5 μL of EDTA in detection buffer (15 mM [EDTA final]). Finally, a 5 μL TR-FRET detection mix is added to the quenched reaction, which includes Europium labeled anti-phospho-MBP. […] Signal is a ratio of the Acceptor and Donor fluorescence. Inhibition constants are calculated via the Morrison equation. Enzyme source of CDK2-cycE1 is ProQinase, catalog #: 0050-0055-1.

[2] = system: SKOV-3 (ATCC HTB-77); experiment: SKOV-3 EdU incorporation cell proliferation assay (CDK4/6-dependent); format: cell-based; conditions: for IC50: Homo sapiens, cellular assay, read-out: CDK4/6 SKOV-3 IC50; for FS SKOV-3/OVISE: fold selectivity, cellular IC50 ratio
Description: (§3) (i) OVISE and SKOV-3 EdU Incorporation Cell Proliferation Assays
(§4) Ovarian cancer cell proliferation is measured by incorporation of EdU (5-ethynyl-2′-deoxyuridine) into newly synthesized DNA. CDK2-dependent proliferation is determined using OVISE (JCRB1043, CCNE1-amplified) while CDK4/6-dependent effect is determined with SKOV-3 (ATCC HTB-77) which is not CCNE1-amplified.
(§5) Cells are plated in 384-well plates in RPMI medium supplemented with 10% FBS. Compounds are added at desired concentrations with a final DMSO content of 0.5%, and cells incubated at 37° C./5% CO2 for 16 hours. EdU (Life Technologies) is added to a final concentration of 0.5 μM and incubation continued for 8 hours, followed by fixation with 4% paraformaldehyde. […] Images are acquired using Yokogawa CQ1 imaging cytometer with a 10×objective. […] The IC50 for inhibition of cell division is determined by fitting the fraction of EdU-positive cells as a function of compound dose using a 4-parameter logistic model.

[3] = target: T2, Cyclin Dependent Kinase 4/Cyclin D3 (CDK4-cycD3) (Homo sapiens, UniProt P11802); experiment: CDK4-cycD3 TR-FRET (LANCE) enzyme assay; format: biochemical; conditions: for Ki: enzymatic assay; for FS CDK4/CDK2: fold selectivity, enzymatic Ki ratio
T2 construct: purchased Carna Biosciences 04-105
Description: as §1
(iii) CDK4-cycD3 TR-FRET (LANCE®)
as §2, with “anti-phospho-4E-BP1.” for “anti-phospho-MBP.”, “equation.” for “equation. Enzyme source of CDK2-cycE1 is ProQinase, catalog #: 0050-0055-1.”

[4] = target: T3, Cyclin Dependent Kinase 1/Cyclin A2 (CDK1-cycA2) (Homo sapiens, UniProt P06493); experiment: CDK1-cycA2 TR-FRET (Lance) enzyme assay; format: biochemical; conditions: for Ki: enzymatic assay; for FS CDK1/CDK2: fold selectivity, enzymatic Ki ratio
T3 construct: purchased ProQinase 0134-0054-1
Description: as §1
(1) CDK1-cycA2 TR-FRET (Lance®)
as §2, with “anti-phospho-4E-BP1.” for “anti-phospho-MBP.”, “equation.” for “equation. Enzyme source of CDK2-cycE1 is ProQinase, catalog #: 0050-0055-1.”

[5] = system: OVISE (JCRB1043, CCNE1-amplified); experiment: OVISE EdU incorporation cell proliferation assay (CDK2-dependent); format: cell-based; conditions: for IC50: cellular assay, read-out: CDK2 OVISE IC50; for FS SKOV-3/OVISE: fold selectivity, cellular SKOV-3 IC50 over OVISE IC50
Description: as §3, §4, §5

[6] = Table O, enzymatic assay, read-out: CDK2 Ki
[7] = read-out: CDK2 activity / potency (enzymatic assay)

T3 sequence (P06493 whole entry): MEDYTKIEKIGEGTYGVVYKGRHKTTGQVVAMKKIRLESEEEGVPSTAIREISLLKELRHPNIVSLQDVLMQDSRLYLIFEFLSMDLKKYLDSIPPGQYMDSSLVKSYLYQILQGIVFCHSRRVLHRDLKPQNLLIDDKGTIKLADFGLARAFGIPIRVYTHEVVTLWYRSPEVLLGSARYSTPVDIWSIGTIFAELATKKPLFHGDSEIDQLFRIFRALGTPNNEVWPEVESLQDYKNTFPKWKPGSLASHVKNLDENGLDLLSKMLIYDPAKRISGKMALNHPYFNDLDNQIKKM
T3 sequence (P20248 whole entry partner): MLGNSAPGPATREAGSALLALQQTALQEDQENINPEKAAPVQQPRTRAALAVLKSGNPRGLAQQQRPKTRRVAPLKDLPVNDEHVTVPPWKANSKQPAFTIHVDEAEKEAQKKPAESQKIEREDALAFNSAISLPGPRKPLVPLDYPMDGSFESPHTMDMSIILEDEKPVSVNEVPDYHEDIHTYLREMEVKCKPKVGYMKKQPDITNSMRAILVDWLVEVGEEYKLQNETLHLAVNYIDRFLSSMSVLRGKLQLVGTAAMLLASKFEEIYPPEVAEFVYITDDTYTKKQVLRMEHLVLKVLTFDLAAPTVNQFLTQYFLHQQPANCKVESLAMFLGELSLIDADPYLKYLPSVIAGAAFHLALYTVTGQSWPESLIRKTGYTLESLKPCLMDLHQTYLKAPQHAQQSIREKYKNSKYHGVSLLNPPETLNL
T2 sequence (P11802 whole entry): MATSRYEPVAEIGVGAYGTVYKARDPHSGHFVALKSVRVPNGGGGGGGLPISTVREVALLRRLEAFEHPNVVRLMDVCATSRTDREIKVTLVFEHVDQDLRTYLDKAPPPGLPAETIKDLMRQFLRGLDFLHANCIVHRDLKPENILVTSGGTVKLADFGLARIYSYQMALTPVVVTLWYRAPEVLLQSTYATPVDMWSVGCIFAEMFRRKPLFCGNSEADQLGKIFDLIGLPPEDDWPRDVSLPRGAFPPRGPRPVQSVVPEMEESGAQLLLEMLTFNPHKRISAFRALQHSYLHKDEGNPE
T2 sequence (P30281 whole entry partner): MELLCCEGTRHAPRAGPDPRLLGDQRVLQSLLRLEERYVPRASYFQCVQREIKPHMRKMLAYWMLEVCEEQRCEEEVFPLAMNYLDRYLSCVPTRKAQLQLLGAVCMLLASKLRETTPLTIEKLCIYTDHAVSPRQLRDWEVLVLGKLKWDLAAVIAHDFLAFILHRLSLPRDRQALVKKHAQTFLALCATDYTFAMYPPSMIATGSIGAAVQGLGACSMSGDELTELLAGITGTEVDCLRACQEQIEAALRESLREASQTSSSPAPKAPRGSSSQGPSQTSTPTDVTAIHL

| Structure (SMILES) | Ki [1, 6] [nM] | FS CDK1/CDK2 ([1]; Table O) | FS CDK4/CDK2 ([1]; Table O) | IC50 ([2]; SK-OV-3, Table O) [nM] | Ki ([3]; Table O) [nM] | Ki ([4]; Table O) [nM] | IC50 ([5]; Table O) [nM] | FS SKOV-3/OVISE ([5]; Table O) | other results |
| --- | --- | --- | --- | --- | --- | --- | --- | --- | --- |
| CC[C@H](C)NC(=O)O[C@@H]1CC[C@H](c2cc(Nc3cccnn3)n[nH]2)C1 (single isomer, unassigned) [Example 3B] | 8.5 | 24 | 34 | 10000 | 290 | 200 | 570 | 18 | – |
| CC[C@@H](C)NC(=O)O[C@@H]1CC[C@H](c2cc(Nc3cccnn3)n[nH]2)C1 (single isomer, unassigned) [Example 3C] | 18 | 28 | 24 | 12000 | 430 | 500 | 390 | 31 | – |
| C[C@H](NC(=O)O[C@@H]1CC[C@H](c2cc(Nc3cccnn3)n[nH]2)C1)C(F)(F)F (single isomer, unassigned) [Example 5A] | 63 | 27 | 33 | > 20000 | 2100 | 1700 | 2200 | >9 | – |
| C[C@@H](NC(=O)O[C@@H]1CC[C@H](c2cc(Nc3cccnn3)n[nH]2)C1)C(F)(F)F (single isomer, unassigned) [Example 5B] | 26 | 12 | 20 | > 20000 | 510 | 310 | 2900 | >6.9 | – |
| CC(C)(C)NC(=O)O[C@@H]1CC[C@H](c2cc(Nc3ccc4c(n3)CCC4)n[nH]2)C1 [Comparator D, (1R,3S)-3-(3-((6,7-dihydro-5H-cyclopenta[b]pyridin-2-yl)amino)-1H-pyrazol-5-yl)cyclopentyl tert-butylcarbamate, reference compound] | – | – | – | – | – | – | – | – | Ki [1, 7]: 2.7 nM; IC50 ([2]; SK-OV-3, Table R): 1800 nM; FS SKOV-3/OVISE ([2]; Table R): 0.47; Ki ([3]; Table R): 5.2 nM; FS CDK4/CDK2 ([3]; Table R): 1.9; Ki ([4]; Table R): 54 nM; FS CDK1/CDK2 ([4]; Table R): 20; IC50 ([5]; Table R): 3800 nM |
| CC(C)(C)NC(=O)O[C@@H]1CC[C@H](c2cc(Nc3ccccc3)n[nH]2)C1 [Comparator E, (1R,3S)-3-(3-(phenylamino)-1H-pyrazol-5-yl)cyclopentyl tert-butylcarbamate, reference compound] | – | – | – | – | – | – | – | – | Ki ([1]; Table S, enzymatic assay, read-out: CDK2 Ki): 0.52 nM; Ki [1, 7]: 0.52 nM; IC50 ([2]; SK-OV-3, Table S): 2700 nM; FS SKOV-3/OVISE ([2]; Table S): 16; Ki ([3]; Table S): 23 nM; FS CDK4/CDK2 ([3]; Table S): 44; Ki ([4]; Table S): 33 nM; FS CDK1/CDK2 ([4]; Table S): 63; IC50 ([5]; Table S): 170 nM |
| Cn1c(Nc2cc([C@H]3CC[C@@H](OC(=O)NC(C)(C)C)C3)[nH]n2)ccnc1=O [Example 8A, (1R,3S)-3-(3-((3-methyl-2-oxo-2,3-dihydropyrimidin-4-yl)amino)-1H-pyrazol-5-yl)cyclopentyl tert-butylcarbamate] | 270 | 41 | 185 | > 20000 | – | 11000 | 20000 | >1 | – |
| Cn1c(Nc2cc([C@H]3CC[C@@H](OC(=O)NC45CC(C4)C5)C3)[nH]n2)nccc1=O [Example 9A, (1R,3S)-3-(3-((1-methyl-6-oxo-1,6-dihydropyrimidin-2-yl)amino)-1H-pyrazol-5-yl)cyclopentyl bicyclo[1.1.1]pentan-1-ylcarbamate] | – | – | – | 3000 | 150 | – | – | – | – |
